One compound from patent US20250129033A1, “METAP2 INHIBITORS AND USES THEREOF” (Yissum Research Development Company of the Hebrew …, priority 2022, published 2025) can be followed below.

“Also recorded” adds a separate entry of the source.

The test system of one data set is A375 xenograft. Description: A375 xenograft in mice. Conditions: for inhibition in tumor growth: 15 mg/kg and 30 mg/kg I.P. q.o.d. Format: in vivo, Foxn1 nu mice. As for the experimental part:
(§1) Animal studies were approved by the Institutional Animal Care and Use Committee of the Faculty of Medicine of the Hebrew University and followed the guidelines for use of laboratory animals. 6-8-week-old male Foxn1 nu mice were S.C. injected with 5×10^6 A375 and MDA-MB-231 cells/mouse. Mice were I.P treated with 30 mg/kg and 15 mg/kg AD-3281 every other day and with 15 mg/kg, 7.5 mg/kg AD-3281 every other day in mice injected with A375 and MDA-MB-231 respectively. Tumor growth was measured with a digital caliper. At the end of the experiments after 18 or 15 days, mice were sacrificed, and tumors were surgically removed, weighed, volume was measured and histology stating was performed. AD-3281 was dissolved in 10:10:80 […]:ethanol:saline.
(§2) Animal studies were approved by the Institutional Animal Care and Use Committee of the Faculty of Medicine of the Hebrew University and followed the guidelines for use of laboratory animals. 6-8-week-old male Foxn1 nu mice were S.C. injected with 5×10^6 A375 or MDA-MB-231 cells/mouse. Mice were I.P treated with 30 mg/kg and 15 mg/kg AD-3281 q.o.d and with 15 mg/kg, 7.5 mg/kg AD-3281 (dissolved in 10:10:80 Cremophor EL: Ethanol: Saline) q.o.d in mice injected with A375 and MDA-MB-231 respectively. Tumor growth was measured with a digital caliper. At the end of the experiments after 18 or 15 days, mice were sacrificed, and tumors were surgically removed, weighed, volume was measured and histology stating was performed. Tumor tissues were resected at the end point and analyzed by immunohistology using standard protocol for paraffin fixed sections using anti-Ki-67 (Abcam, catalog number ab15580), anti-CD31 (Abcam, catalog number ab28364), anti-MetAp-2 (Ab134124, Abcam, Cambridge, UK) (Figure S.

Another data set has as its system MDA-MB-231 xenograft. Description: MDA-MB-231 xenograft in mice. Type of data set: in vivo, Foxn1 nu mice. The method, then:
as §1, §2

For a further data set, the target named is MetAP2 (Homo sapiens, UniProt P50579). Description: MetAp2 enzymatic assay, L-Met-AMC substrate (Experimental Set-Up 1). Type of data set: biochemical. The method, then:
Quantitative MetAP2 activity assay by N-terminal cleavage of substrate 7-amino-4-methyl-courmarin was performed as follows: The activity of MetAP2 was measured using fluorescent peptide substrate L-Met-AMC (Santa Cruz Biotechnology, Inc, sc-207807) as described by Garrabrant et al. (Angiogenesis 7: 91-96, 2004). Briefly, the reaction (100 μl final) was initiated by adding 0.5 μg of MetAP2 or 5 μg HUVEC homogenate to reaction buffer containing 50 mM HEPES (pH 7.4), 100 mM NaCl, 0.1 mM CoCl2, 1 mg/ml PEG6000, and 250 μM L-Met-AMC substrate. The assay was prepared in black flat-bottomed 96-well microtiter plates and fluorescence was measured every 20 s over a period of 60 min at 25° C. using a microplate fluorometer (Bioteck, SynergyHT), with excitation and emission wavelengths set at 360 and 440 nm respectively. As a control the inhibition of the enzyme was obtained by incubating it with TNP-470 for 15 min before the addition of the substrate.
The inhibitory effect of the compounds were tested in MetAp2 enzymatic assay.

Another data set is described as follows: ERG study in mice. Format: in vivo. The following applies: Low dose 12 μg per eye and High dose 48 μg per eye.
Data set [1] relates to A375 3D multicellular spheroids. Description: A375 3D spheroid viability (WST1). Format: cell-based, human. Conditions: 50 μM free inhibitor, 96 h. As for the experimental part: 3D Petri Dish 35-well array (Microtissues Inc., RI, USA) was used to create 2% agarose hydrogel micro-wells. Each well contained 5,000 cells of A375 cells. 30 minutes after seeding, 1 ml of medium was added and templates were incubated at 37° C. for 24 hours. […] The absorbance was measured at 450 nm using a plate reader (Wallac 1420 VICTOR plate reader, Perkin-Elmer Life Sciences, USA).

A further data set has as its system HUVECs. Description: Endothelial tube formation assay. Format: cell-based, human. The following applies: 12 h. As for the experimental part:
To evaluate the angiogenic effect of AD-3281, an endothelial tube formation assay was performed. HUVECs were kept in serum-free Dulbecco's modified Eagle's medium media, collected, seeded in 0.1% gelatin coated 96-well plate and monitored for 12 h using a microscope. Images were taken from 6 separated wells and analyzed using Incucyte® Live-Cell Analysis Systems.

Chain of MetAP2 (P50579 whole entry): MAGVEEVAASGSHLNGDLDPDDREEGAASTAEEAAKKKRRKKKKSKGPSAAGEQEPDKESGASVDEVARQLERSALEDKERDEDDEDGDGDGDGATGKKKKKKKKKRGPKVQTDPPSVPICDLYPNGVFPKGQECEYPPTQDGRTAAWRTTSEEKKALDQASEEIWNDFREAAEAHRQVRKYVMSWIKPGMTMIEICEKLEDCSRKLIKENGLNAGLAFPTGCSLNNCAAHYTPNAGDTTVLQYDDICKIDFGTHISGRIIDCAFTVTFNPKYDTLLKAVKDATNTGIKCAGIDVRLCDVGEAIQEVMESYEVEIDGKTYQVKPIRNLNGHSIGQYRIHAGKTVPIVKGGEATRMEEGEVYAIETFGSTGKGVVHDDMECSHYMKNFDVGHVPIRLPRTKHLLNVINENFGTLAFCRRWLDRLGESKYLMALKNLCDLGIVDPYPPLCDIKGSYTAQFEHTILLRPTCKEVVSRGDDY

As for `COC1C(OC(=O)CC23CC4CC(CC(C4)C2)C3)CCC2(CO2)C1C1(C)OC1CC=C(C)C` (stereo not drawn) [AD-3281, Fumagillol-1-adamantylacetate], the “inhibition in tumor growth” value is reported as around 70% with A375 xenograft (after 8 days, vs control) and 99% in the data set with A375 xenograft (day 18). The “cellular proliferation in tumors (Ki-67)” value in the data set on A375 xenograft (immunofluorescent staining of extracted tumors) was “less cellular proliferation than untreated tumors”. In addition, the “mean weight of extracted tumors” value in the data set with A375 xenograft (treated groups, day 18 (untreated 1 g)) is reported as around 0.1 g; with MDA-MB-231 xenograft (7.5 mg/kg q.o.d (untreated 1 g)) it was 0.05 g; in the data set on MDA-MB-231 xenograft (15 mg/kg q.o.d (untreated 1 g)), 0.001 g. The tumor volume inhibition in the data set on MDA-MB-231 xenograft (7.5 mg/kg q.o.d, after 15 days) worked out at 97%. Moreover, the “tumors that seemed completely eradicated” value in the data set on MDA-MB-231 xenograft (15 mg/kg q.o.d, after 15 days, n=4) was found to be 3 tumors. The systemic adverse effects entry with MDA-MB-231 xenograft (all treated mice) is “no signs of systemic adverse effects”. Also, the “weight loss (>10%)” value in the data set on MDA-MB-231 xenograft (all treated mice) is “not weight loss was detected”. The “inhibitory effect in MetAp2 enzymatic assay (ranking among compounds)” value at MetAP2 is recorded as “most active”. Moreover, the “damage to vision (ERG)” value in the data set “ERG study in mice” is “no damage to vision”. The “effect of free inhibitor on spheroids viability” value in data set [1] was “did not show a significant reduction; also recorded: slight reduction of spheroids viability”. Besides, the HUVEC tube formation result is reported as “narrower tubes compared with untreated control but without preventing network formation” with HUVECs (50 μM) and “impaired tubes; also recorded: prevent tube formation” with HUVECs (100 μM).
